Assays:
[1] = biological target: T1, human IKKα (Homo sapiens, UniProt O15111); assay: IKKα kinase inhibition assay (phosphorylation of IκBα substrate, 33P-ATP); format: biochemical; settings: flag-tagged human IKKα 3.6 μg/ml, GST-IκBα (1-54) 245 μg/ml, 250 nM ATP, 1 hour at 25° C.
T1 construct: FLAG (N)
T1 sequence (O15111 1-745): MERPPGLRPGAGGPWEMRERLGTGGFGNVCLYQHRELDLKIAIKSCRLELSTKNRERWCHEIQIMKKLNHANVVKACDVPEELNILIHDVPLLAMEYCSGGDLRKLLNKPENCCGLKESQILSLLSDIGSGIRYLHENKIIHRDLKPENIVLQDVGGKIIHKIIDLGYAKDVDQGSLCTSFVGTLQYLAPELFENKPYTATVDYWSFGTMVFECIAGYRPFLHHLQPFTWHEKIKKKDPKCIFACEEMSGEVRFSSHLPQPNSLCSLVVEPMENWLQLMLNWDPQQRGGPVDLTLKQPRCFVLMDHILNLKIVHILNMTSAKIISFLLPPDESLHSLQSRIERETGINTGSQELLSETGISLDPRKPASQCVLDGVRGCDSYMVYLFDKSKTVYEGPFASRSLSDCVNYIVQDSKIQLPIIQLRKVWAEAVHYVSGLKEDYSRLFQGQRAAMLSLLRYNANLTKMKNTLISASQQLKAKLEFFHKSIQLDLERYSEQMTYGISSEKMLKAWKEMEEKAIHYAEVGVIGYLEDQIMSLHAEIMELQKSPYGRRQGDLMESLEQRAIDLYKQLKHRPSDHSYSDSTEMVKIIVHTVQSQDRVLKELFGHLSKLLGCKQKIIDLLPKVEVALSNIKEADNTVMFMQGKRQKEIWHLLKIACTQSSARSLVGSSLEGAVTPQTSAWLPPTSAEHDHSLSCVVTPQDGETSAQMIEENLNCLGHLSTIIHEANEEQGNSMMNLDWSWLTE
Protocol: The inhibition of IKKα and IKKβ by the compounds of the present invention was determined with the following assay that measures the phosphorylation of the IκBα substrate by the respective kinases. The enzymes used in the assay were N-terminally flag-tagged versions of the human IKKβ or IKKα and the substrate was a GST fusion protein with IκBα (amino acids 1-54).
The reaction mixtures (60 μl) contained 20 mM HEPES pH 7.5, 10 mM MgCl2, 2 mM MnCl2, 100 mM NaCl, 100 μM Na3VO4, 20 mM β-glycerophosphate, 1 mM DTT, 2% DMSO, 250 nM ATP, 0.4 nM [^33P]ATP (specific activity, 3000 Ci/mmol), IκBα substrate, IKK enzyme and test compound. The reaction mixtures contained either 3.6 μg/ml IKKα and 245 μg/ml IκBα or 0.9 μg/ml IKKβ and 53 μg/ml IκBα.
Reactions were initiated by adding a solution of IκBα substrate and ATP to polypropylene plates containing IKK enzyme that was pre-incubated for 5 minutes with test compound. Then the reaction mixtures were incubated for 1 hour at 25° C., placed on ice and quenched by the addition of 150 μl 10% trichloroacetic acid and 5% disodium pyrophosphate. After mixing, the entire contents of the quenched reaction mixtures were transferred to a pre-wetted Packard UniFilter filtration plate, aspirated and washed 6 times with 250 μl of ddH2O using the Packard Filtermate Harvester. Filtration plates were then air dried, supplemented with 40 μl of Microscint 20 scintillation fluid and the ^33P-labeled reaction products were quantified using the Packard TopCount scintillation counter.
Compounds were tested in three-fold serial dilutions and inhibitor concentrations to achieve 50% inhibition of enzyme activity (i.e., IC50) were derived from dose-reponse curves using SAS software (SAS Institute, Cary N.C.). A non-linear regression analysis based on the Hill equation was applied to the percent inhibition versus concentration data. In all cases, compound concentrations were verified by HPLC.

[2] = biological target: T2, human IKKβ (Homo sapiens, UniProt O14920); assay: IKKβ kinase inhibition assay (phosphorylation of IκBα substrate, 33P-ATP); format: biochemical; settings: flag-tagged human IKKβ 0.9 μg/ml, GST-IκBα (1-54) 53 μg/ml, 250 nM ATP, 1 hour at 25° C.
T2 construct: FLAG (N)
T2 sequence (O14920 1-756): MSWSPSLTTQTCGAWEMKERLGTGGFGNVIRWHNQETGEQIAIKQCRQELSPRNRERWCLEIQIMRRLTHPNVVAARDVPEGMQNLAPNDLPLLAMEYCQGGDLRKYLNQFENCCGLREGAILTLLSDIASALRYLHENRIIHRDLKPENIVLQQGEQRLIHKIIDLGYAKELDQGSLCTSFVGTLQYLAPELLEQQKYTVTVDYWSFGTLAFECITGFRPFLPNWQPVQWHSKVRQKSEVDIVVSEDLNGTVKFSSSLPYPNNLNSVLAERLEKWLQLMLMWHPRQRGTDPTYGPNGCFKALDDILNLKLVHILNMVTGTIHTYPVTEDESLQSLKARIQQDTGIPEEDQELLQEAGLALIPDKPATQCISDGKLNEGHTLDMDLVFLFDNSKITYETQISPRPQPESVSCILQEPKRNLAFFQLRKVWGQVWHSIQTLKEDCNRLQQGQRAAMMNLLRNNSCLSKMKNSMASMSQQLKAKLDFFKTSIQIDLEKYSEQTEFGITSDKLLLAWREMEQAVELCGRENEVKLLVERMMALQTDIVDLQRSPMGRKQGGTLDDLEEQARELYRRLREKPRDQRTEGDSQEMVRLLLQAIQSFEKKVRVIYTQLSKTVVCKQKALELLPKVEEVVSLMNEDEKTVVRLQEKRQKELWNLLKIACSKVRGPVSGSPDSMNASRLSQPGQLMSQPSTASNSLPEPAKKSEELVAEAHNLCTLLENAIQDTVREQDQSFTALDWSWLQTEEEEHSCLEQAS
How it was run: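 N-terminally Flag-tagged human IKKα (3.6 μg/ml) or IKKβ (0.9 μg/ml) phosphorylating GST-IκBα(1-54) (245 or 53 μg/ml respectively), 250 nM ATP plus [33P]ATP, pH 7.5 HEPES with Mg2+/Mn2+, 2% DMSO; 5 min compound preincubation, 1 h at 25 °C.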

| SMILES | IC50 [1] [µM] | IC50 [2] [µM] | melting point [°C] |
| --- | --- | --- | --- |
| NC(=O)c1sc2nc(N3CCC(N)CC3)cc(C3CC3)c2c1N [3-Amino-6-(4-amino-piperidin-1-yl)-4-cyclopropyl-thieno[2,3-b] pyridine-2-carboxylic acid amide] | ≤ 10 | < 1 | – |
| CCCc1cc(N2CCC(NCC(O)c3ccc(NS(C)(=O)=O)cc3)CC2)nc2sc(C(N)=O)c(N)c12 (stereo not drawn) [Example 12, 3-Amino-6-{4-[2-hydroxy-2-(4-methanesulfonylamino-phenyl)-ethylamino)-piperidin-1-yl]-4-propyl-thieno[2,3-b]pyridine-2-carboxylic acid amide] | – | – | 199 to 200 |
| NC(=O)c1sc2nc(N3CCC(N)CC3)cc(C(=O)Nc3ccncc3)c2c1N [3-Amino-6-(4-amino-piperidin-1-yl)-thieno[2,3-b]pyridine-2,4-dicarboxylic acid 2-amide 4-pyridin-4-ylamide] | ≤ 10 | < 1 | – |
| NC(=O)c1sc2nc(N3CCC(N)CC3)cc(/C=C/c3ccncc3)c2c1N [3-Amino-6-(4-amino-piperidin-1-yl)-4-((E)-2-pyridin-4-yl-vinyl)-thieno[2,3-b]pyridine-2-carboxylic acid amide] | ≤ 10 | < 1 | – |
| NC(=O)c1sc2nc(N3CCC(N)CC3)cc(C(N)=O)c2c1N [3-Amino-6-(4-amino-piperidin-1-yl)-thieno[2,3-b]pyridine-2,4-dicarboxylic acid diamide] | ≤ 10 | < 1 | – |
| CCCc1cc(N2CCC(NCc3nnn[nH]3)CC2)nc2sc(C(N)=O)c(N)c12 [3-Amino-4-propyl-6-{4-[(1H-tetrazol-5-ylmethyl)-amino]-piperidin-1-yl}-thieno[2,3-b] pyridine-2-carboxylic acid amide] | ≤ 10 | < 1 | – |
| CNC1CCN(c2cc(C(F)F)c3c(N)c(C(N)=O)sc3n2)CC1 [3-Amino-4-difluoromethyl-6-(4-methylamino-piperidin-1-yl)-thieno[2,3-b]pyridine-2-carboxylic acid amide] | ≤ 10 | < 1 | – |
| NC(=O)c1sc2nc(N3CCC(N)CC3)cc(C(=O)Nc3ccccc3)c2c1N [3-Amino-6-(4-amino-piperidin-1-yl)-thieno[2,3-b]pyridine-2,4-dicarboxylic acid 2-amide 4-phenylamide] | ≤ 10 | < 1 | – |
| COC(=O)c1ccc(/C=C/c2cc(N3CCC(N)CC3)nc3sc(C(N)=O)c(N)c23)cc1 [4-{(E)-2-[3-Amino-6-(4-amino-piperidin-1-yl)-2-carbamoyl-thieno[2,3-b]pyridin-4-yl]-vinyl}-benzoic acid methyl ester] | ≤ 10 | < 1 | – |
| CCCc1cc(N2CCC(NCC(=O)N3CCC(O)CC3)CC2)nc2sc(C(N)=O)c(N)c12 [3-Amino-6-{4-[2-(4-hydroxy-piperidin-1-yl)-2-oxo-ethylamino]-piperidin-1-yl}-4-propyl-thieno[2,3-b] pyridine-2-carboxylic acid amide] | ≤ 10 | < 1 | – |
| CCCc1cc(N2CCC(NCC(=O)Nc3cccc4ccccc34)CC2)nc2sc(C(N)=O)c(N)c12 [3-Amino-6-{4-[(naphthalen-1-ylcarbamoylmethyl)-amino]-piperidin-1-yl}-4-propyl-thieno[2,3-b] pyridine-2-carboxylic acid amide] | ≤ 10 | < 1 | – |
| CCCc1cc(N2CCC(NCC(=O)O)CC2)nc2sc(C(N)=O)c(N)c12 [[1-(3-Amino-2-carbamoyl-4-propyl-thieno[2,3-b]pyridin-6-yl)-piperidin-4-ylamino]-acetic acid] | ≤ 10 | < 1 | – |
| CCCc1cc(N2CCC(NCC(O)c3ccc(-c4nccn4C)cc3)CC2)nc2sc(C(N)=O)c(N)c12 (stereo not drawn) [3-Amino-6-(4-{2-hydroxy-2-[4-(1-methyl-1H-imidazol-2-yl)-phenyl]-ethylamino}-piperidin-1-yl)-4-propyl-thieno[2,3-b] pyridine-2-carboxylic acid amide] | ≤ 10 | < 1 | – |
| CNC1CCN(c2cc(OCC(F)(F)F)c3c(N)c(C(N)=O)sc3n2)CC1 [3-Amino-6-(4-methylamino-piperidin-1-yl)-4-(2,2,2-trifluoro-ethoxy)-thieno[2,3-b]pyridine-2-carboxylic acid amide] | ≤ 10 | < 1 | – |
